According to article PMC8578629, “Photoactivated cell-killing amino-based flavylium compounds” (Scientific Reports, 2021):

Experiments:
[1] = MTT cytotoxicity assay, keratinocytes; format: cell-based; conditions: human, HaCaT cells (keratinocytes), dark
Protocol: The cytotoxicity of amino-based flavylium compounds to HFF-1 (ATCC Number: SCRC-1041) and HaCaT cells was evaluated using the standard MTT assay. Briefly, cells were seeded at a density of 8 × 10^5 and 4 × 10^4 cells/mL, respectively, in 96-well plate and incubated at 37 °C in a 5% CO2 atmosphere. Cells were allowed to grow for 24 h or until reaching monolayer confluency, and serially diluted compound solutions (6.3–100 µM) were added to the plate wells. The stock solutions of each compound were prepared at 200 mM in DMSO, the maximum % of DMSO in the cells was 0.05%. Then, cells were incubated for 48 h at 37 °C, after which the plate wells were washed once with phosphate buffered saline (PBS, Sigma-Aldrich), followed by addition of a 0.45 mg/mL MTT solution to each well. Crystals were allowed to form for 1.5 h. The reaction was stopped by rejecting the medium followed by the addition of 100 µL of DMSO (Sigma-Aldrich). The absorbance was read at 570 nm in FlexStation 3 Multi-Mode Microplate Reader (Molecular Devices, California, USA).

[2] = set-up: method as in doi:10.1016/j.cplett.2017.02.055; conditions: cited from earlier work

SMILES	IC50 at 48 h ([1]; monolayer confluence) [µM]	IC50 at 48 h ([1]; proliferation) [µM]	Fluorescence quantum yield [2] [%]
CCN(CC)c1ccc2ccc(-c3ccc(N)cc3)[o+]c2c1 [7NEt24′NH2, 4′-amino-7-diethylamino-benzopyrylium]	29.8 ± 0.8	8.9 ± 0.2	
C=CC1=C(C)c2cc3[nH]c(cc4nc(cc5[nH]c(cc1n2)c(C)c5CCC(=O)O)C(CCC(=O)O)=C4C)c(C)c3C=C [PpIX, protoporphyrin IX, reference compound]			8.5
CCN(CC)c1ccc2ccc(/C=C/c3ccc(N(C)C)cc3)[o+]c2c1 [7NEt2st4′NMe2, 7-(diethylamino)-2-(4′-dimethylaminostyryl)-benzopyrylium]	91 ± 0.8	35.42 ± 0.02	
